Results taken from US10723741B1, “DNA polymerase IIIC inhibitors and use thereof” (Acurx Pharmaceuticals, LLC, priority 2018, dated 2020).
≈ marks a conversion by molar mass, not a printed value. Read-outs that look alike come from different tables or passages of the source.

Assays:
Assay type in all cases: cell-based
[1] = tested on: Staphylococcus aureus NRS384 (MRSA); experiment: Broth microdilution MIC, S. aureus NRS384 (MRSA); set-up: MIC NRS 384 (MRSA): unit not given here; conditions: for MIC: Staphylococcus aureus, read-out: MIC NRS 384 (MRSA)
In short: (§1)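 Broth microdilution in strain-specific test medium with ~5.0×10^5 cfu/ml inoculum, 1% DMSO and two-fold compound dilutions from 64 to 0.0625 μg/ml. Plates were held 20 hours at 37° C in ambient air. S. pneumoniae colonies were grown beforehand on blood agar in 5% CO2.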

[2] = tested on: Staphylococcus aureus ATCC 29213 (MSSA); experiment: Broth microdilution MIC, S. aureus ATCC 29213 (MSSA); conditions: read-out: MIC S. aureus ATCC 29213 (MSSA)
In short: as §1

[3] = tested on: Enterococcus faecalis ATCC 29212; experiment: Broth microdilution MIC, E. faecalis ATCC 29212; conditions: read-out: MIC E. faecalis ATCC 29212
In short: as §1

[4] = tested on: Enterococcus faecium ATCC 700221 (VRE); experiment: Broth microdilution MIC, E. faecium ATCC 700221 (VRE); set-up: MIC E. faecium ATCC 700221 (VRE): unit: ug/mL; conditions: for MIC: Enterococcus faecium, read-out: MIC E. faecium ATCC 700221 (VRE)
In short: as §1

[5] = tested on: Streptococcus pneumoniae ATCC 49619; experiment: Broth microdilution MIC, S. pneumoniae ATCC 49619; conditions: read-out: MIC S. pneumoniae ATCC 49619
In short: as §1

[6] = tested on: Bacillus subtilis ATCC 6633; experiment: Broth microdilution MIC, B. subtilis ATCC 6633; conditions: read-out: MIC B. subtilis ATCC 6633
In short: as §1

[7] = tested on: Escherichia coli ATCC 25922; experiment: Broth microdilution MIC, E. coli ATCC 25922 (MHIIB w & w/o 4 mM EDTA); conditions: for MIC: Escherichia coli, read-out: MIC E. coli ATCC 25922; for MIC E. coli ATCC 25922 + 4 mM EDTA: with 4 mM EDTA
In short: as §1

[8] = broth microdilution, 37° C., 20 hours
[9] = ATCC29212, broth microdilution, 37° C., 20 hours
[10] = ATCC49619, broth microdilution, 37° C., 20 hours
[11] = ATCC6633, broth microdilution, 37° C., 20 hours
[12] = ATCC25922, without EDTA, broth microdilution, 37° C., 20 hours

Row | Compound | MIC NRS 384 (MRSA) [1, 8] | MIC [2, 8] | MIC [3, 9] | MIC E. faecium ATCC 700221 (VRE) [4, 8] | MIC [5, 10] | MIC [6, 11] | MIC [7, 12] | MIC E. coli ATCC 25922 + 4 mM EDTA [7, 8] | MIC [1, 8] | MIC [4, 8] | MIC ([1]; 20 h) | MIC ([2]; 20 h) | MIC ([3]; ATCC29212, 20 h) | MIC ([4]; 20 h) | MIC ([5]; ATCC49619, 20 h) | MIC ([6]; ATCC6633, 20 h) | MIC ([7]; ATCC25922, 20 h)
1 | O=c1[nH]c(NCc2ccc(Cl)c(Cl)c2)nc2cnn(Cc3ncccn3)c12 [Compound 114, 5-((3,4-Dichlorobenzyl)amino)-1-(pyrimidin-2-ylmethyl)-1H-pyrazolo[4,3-d]pyrimidin-7(6H)-one] | 4/4 | 8 µg/mL (≈ 19.9 µM) | 16 µg/mL (≈ 39.8 µM) | 4/4 | 4 µg/mL (≈ 9.94 µM) | 2 µg/mL (≈ 4.97 µM) | > 64 µg/mL | 32 µg/mL | – | – | – | – | – | – | – | – | –
2 | C[Si](C)(C)CCOCNC(=O)Cn1ncc2nc(NCc3ccc(Cl)c(Cl)c3)[nH]c(=O)c21 [Compound 197, 2-(5-((3,4-dichlorobenzyl)amino)-7-oxo-6,7-dihydro-1H-pyrazolo[4,3-d]pyrimidin-1-yl)-N-((2-(trimethylsilyl)ethoxy)methyl)acetamide] | – | > 64 µg/mL | > 64 µg/mL | – | > 64 µg/mL | > 64 µg/mL | > 64 µg/mL | >64 µg/mL | > 64 µg/mL | > 64 µg/mL | – | – | – | – | – | – | –
3 | CN(C)C(=O)c1nn(C)c2c(=O)[nH]c(NCc3ccc(Cl)c(Cl)c3)nc12 [Compound 43, 5-((3,4-Dichlorobenzyl)amino)-N,N, 1-trimethyl-7-oxo-6,7-dihydro-1H-pyrazolo[4,3-d]pyrimidine-3-carboxamide] | – | > 64 µg/mL | > 64 µg/mL | – | 64 µg/mL (≈ 162 µM) | 64 µg/mL (≈ 162 µM) | > 64 µg/mL | >64 µg/mL | > 64 µg/mL | > 64 µg/mL | – | – | – | – | – | – | –
4 | O=C(O)CCn1ncc2nc(NCc3ccc(Cl)c(Cl)c3)[nH]c(=O)c21 [Compound 229, 3-(5-((3,4-dichlorobenzyl)amino)-7-oxo-6,7-dihydro-1H-pyrazolo[4,3-d]pyrimidin-1-yl)propanoic Acid] | – | > 64 µg/mL | 64 µg/mL (≈ 167 µM) | – | 16 µg/mL (≈ 41.9 µM) | > 64 µg/mL | > 64 µg/mL | >64 µg/mL | > 64 µg/mL | 64 µg/mL (≈ 167 µM) | – | – | – | – | – | – | –
5 | Cl.O=C(O)C1CC(n2ncc3nc(NCc4ccc(Cl)c(Cl)c4)[nH]c(=O)c32)CN1 (stereo not drawn) [Compound 151, 4-(5-((3,4-dichlorobenzyl)amino)-7-oxo-6,7-dihydro-1H-pyrazolo[4,3-d]pyrimidin-1-yl)pyrrolidine-2-carboxylic acid hydrochloride] | – | > 64 µg/mL | > 64 µg/mL | – | 64 µg/mL | > 64 µg/mL | > 64 µg/mL | >64 µg/mL | > 64 µg/mL | > 64 µg/mL | – | – | – | – | – | – | –
6 | Cl.Cl.O=c1[nH]c(NCc2ccc(Cl)c(Cl)c2)nc2cnn(C3CCN(c4ccccn4)CC3)c12 [Compound 161, 5-((3,4-dichlorobenzyl)amino)-1-(1-(pyridin-2-yl)piperidin-4-yl)-1H-pyrazolo[4,3-d]pyrimidin-7(6H)-one dihydrochloride] | – | 8 µg/mL | > 64 µg/mL | – | 16 µg/mL | 2 µg/mL | > 64 µg/mL | >64 µg/mL | 4 µg/mL | 2 µg/mL | – | – | – | – | – | – | –
7 | COP(=O)(O)OCCOCCn1ncc2nc(NCc3ccc(Cl)c(Cl)c3)[nH]c(=O)c21 [Compound 298, 2-(2-(5-((3,4-Dichlorobenzyl)amino)-7-oxo-6,7-dihydro-1H-pyrazolo[4,3-d]pyrimidin-1-yl)ethoxy)ethyl methyl hydrogen phosphate] | – | – | – | – | – | – | – | >64 µg/mL | – | – | > 64 µg/mL | > 64 µg/mL | > 64 µg/mL | > 64 µg/mL | > 64 µg/mL | > 64 µg/mL | > 64 µg/mL
8 | Cl.Cl.O=c1[nH]c(NCc2ccc(Cl)c(Cl)c2)nc2cnn(C3CCN(CC4CCCCN4)CC3)c12 (stereo not drawn) [Compound 249, 5-((3,4-dichlorobenzyl)amino)-1-(1-(piperidin-2-ylmethyl)piperidin-4-yl)-1H-pyrazolo[4,3-d]pyrimidin-7(6H)-one dihydrochloride] | – | 16 µg/mL | 16 µg/mL | – | 4 µg/mL | 4 µg/mL | > 64 µg/mL | 64 µg/mL | 16 µg/mL | 8 µg/mL | – | – | – | – | – | – | –
9 | O=C(NCCn1ncc2nc(NCc3ccc(Cl)c(Cl)c3)[nH]c(=O)c21)c1cc(O)nnc1Cl [Compound 84, 3-chloro-N-(2-(5-((3,4-dichlorobenzyl)amino)-7-oxo-6,7-dihydro-1H-pyrazolo[4,3-d]pyrimidin-1-yl)ethyl)-6-hydroxypyridazine-4-carboxamide] | – | 64 µg/mL (≈ 126 µM) | 64 µg/mL (≈ 126 µM) | – | 16 µg/mL (≈ 31.4 µM) | 64 µg/mL (≈ 126 µM) | > 64 µg/mL | >64 µg/mL | 64 µg/mL (≈ 126 µM) | 32 µg/mL (≈ 62.8 µM) | – | – | – | – | – | – | –
10 | Cn1ncc2nc(Nc3ccc4c(c3)COC4)[nH]c(=O)c21 [Compound 39, 5-((1,3-Dihydroisobenzofuran-5-yl)amino)-1-methyl-1H-pyrazolo[4,3-d]pyrimidin-7(6H)-one] | – | > 64 µg/mL | > 64 µg/mL | – | > 64 µg/mL | > 64 µg/mL | > 64 µg/mL | >64 µg/mL | > 64 µg/mL | > 64 µg/mL | – | – | – | – | – | – | –
11 | Cn1ncc2nc(NCc3cscn3)[nH]c(=O)c21 [Compound 15, 1-Methyl-5-((thiazol-4-ylmethyl)amino)-1H-pyrazolo[4,3-d]pyrimidin-7(6H)-one] | – | > 64 µg/mL | > 64 µg/mL | – | > 64 µg/mL | > 64 µg/mL | > 64 µg/mL | >64 µg/mL | > 64 µg/mL | > 64 µg/mL | – | – | – | – | – | – | –
12 | COCCn1cc2nc(NCc3ccc(Cl)c(Cl)c3)[nH]c(=O)c2n1 [Compound 128, 5-((3,4-Dichlorobenzyl)amino)-2-(2-methoxyethyl)-2H-pyrazolo[4,3-d]pyrimidin-7(6H)-one] | – | 32 µg/mL (≈ 86.9 µM) | 32 µg/mL (≈ 86.9 µM) | – | 16 µg/mL (≈ 43.5 µM) | 16 µg/mL (≈ 43.5 µM) | > 64 µg/mL | >64 µg/mL | 32 µg/mL (≈ 86.9 µM) | 32 µg/mL (≈ 86.9 µM) | – | – | – | – | – | – | –
13 | CC(=O)N1CCN(CCn2ncc3nc(NCc4ccc(Cl)c(Cl)c4)[nH]c(=O)c32)CC1.Cl [Compound 64, 1-(2-(4-Acetylpiperazin-1-yl)ethyl)-5-((3,4-dichlorobenzyl)amino)-1H-pyrazolo[4,3-d]pyrimidin-7(6H)-one hydrochloride] | – | 8 µg/mL | 4 µg/mL | – | 4 µg/mL | 2 µg/mL | > 64 µg/mL | 64 µg/mL | 8 µg/mL | 2 µg/mL | – | – | – | – | – | – | –
14 | O=c1[nH]c(NCc2ccc(Cl)c(Cl)c2)nc2cnn(CC(CO)N3CCOCC3)c12 (stereo not drawn) [Compound 288, 5-[(3,4-dichlorophenyl)methylamino]-1-(3-hydroxy-2-morpholino-propyl)-6H-pyrazolo[4,3-d]pyrimidin-7-one] | – | 32 µg/mL (≈ 70.6 µM) | 32 µg/mL (≈ 70.6 µM) | – | 16 µg/mL (≈ 35.3 µM) | 8 µg/mL (≈ 17.6 µM) | > 64 µg/mL | >64 µg/mL | 32 µg/mL (≈ 70.6 µM) | 16 µg/mL (≈ 35.3 µM) | – | – | – | – | – | – | –
15 | Cn1ncc2nc(NCc3cnccn3)[nH]c(=O)c21 [Compound 12, 1-Methyl-5-((pyrazin-2-ylmethyl)amino)-1H-pyrazolo[4,3-d]pyrimidin-7(6H)-one] | – | > 64 µg/mL | > 64 µg/mL | – | > 64 µg/mL | > 64 µg/mL | > 64 µg/mL | >64 µg/mL | > 64 µg/mL | > 64 µg/mL | – | – | – | – | – | – | –
